Data from article PMC6131539, “Behavioral Effects of a Potential Novel TAAR1 Antagonist” (Frontiers in Pharmacology, 2018).

How the values were obtained:
5-HT2A = target: T1, 5-HT2A (Homo sapiens, UniProt P28223); test: PDSP binding, primary screen
T1 construct: purchased NIMH Psychoactive Drug Screening Program (PDSP), University of North Carolina-Chapel Hill
Experimental: (§1) This was achieved through the identification of potential pharmacological targets of compound 22 using the Psychoactive Drug Screening Program (PDSP) at University of North Carolina-Chapel-Hill. PDSP provides a platform for screening novel psychoactive compounds on human proteins expressed in the central nervous system in order to identify their biological target(s) ([Besnard et al., 2012]). Binding studies were done on 47 targets at a single dose of compound 22 (10 μM; Supplementary Table S1). This primary screen yielded a total of 5 hits for compound 22 (Table 2). These hits were the serotonin, dopamine, and norepinephrine transporters, as well as the sigma 1 and sigma 2 receptors.
(§2) Supplemental Table 1. Compound 22 binding studies from PDSP: primary screen for compound 22 and subsequent hits (50% cut-off, hits highlighted in red). The primary screen was performed by PDSP as described previously (Besnard et al., 2012).

M3 = target: T2, M3 (Homo sapiens, UniProt P20309); test: PDSP binding, primary screen
T2 construct: purchased NIMH Psychoactive Drug Screening Program (PDSP), University of North Carolina-Chapel Hill
Experimental: as §1, §2

Alpha2B = target: T3, Alpha2B (Homo sapiens, UniProt P18089); test: PDSP binding, primary screen
T3 construct: purchased NIMH Psychoactive Drug Screening Program (PDSP), University of North Carolina-Chapel Hill
Experimental: as §1, §2

M2 = target: T4, M2 (Homo sapiens, UniProt P08172); test: PDSP binding, primary screen
T4 construct: purchased NIMH Psychoactive Drug Screening Program (PDSP), University of North Carolina-Chapel Hill
Experimental: as §1, §2

M1 = target: T5, M1 (Homo sapiens, UniProt P11229); test: PDSP binding, primary screen
T5 construct: purchased NIMH Psychoactive Drug Screening Program (PDSP), University of North Carolina-Chapel Hill
Experimental: as §1, §2

[1] = test system: WT littermates (C57BL/6J × 129S2/Sv); test: Amphetamine-induced locomotor activity, co-injection, WT littermates; assay type: in vivo, mice; details: 5 mg/kg co-injected with amphetamine 2 mg/kg, p = 0.049
Experimental: The Taarl^-/- (TAAR1-KO) mice were obtained from Lundbeck ([Wolinsky et al., 2007]). All wild type (WT) and TAAR1-KO mice used for experiments were generated from TAAR1-KO heterozygous mice in a C57BL/6J x 129S1/Sv mixed background.
(§3) Experimentally naïve mice, of at least 12 weeks of age, were used for all behavioral experiments. The mice were randomly assigned to treatment or control groups, balanced by sex and weight. Locomotor activity was assessed using the automated locomotor analysis monitors (Omnitech Electronics, Columbus, OH, United States). The apparatus included four open field monitors. Each Open Field monitor consisted of sets of 16 light beams arrayed in the horizontal X and Y axes. The hardware detected beams broken by the animal, which allowed the software to determine the location of the mouse in the cage. Total distance covered by mice was used to characterize locomotor activity of the animals. The monitors were divided into four compartments (20 cm × 20 cm). Animals were tested individually for defined periods with 5-min intervals. The mice were first weighed and then placed into the apparatus, allowing for 30 min habituation. Following the habituation, the mice were removed from the al apparatus and injected with drugs (see below for administration) or vehicle and returned immediately to the locomotor chamber.

C57BL/6J mice = test: Stereotypic counts, co-injection with cocaine, C57BL/6J mice; assay type: in vivo; details: 5 and 25 mg/kg co-injected with cocaine 10 mg/kg; sum over 60 min
[2] = test system: WT littermates (C57BL/6J × 129S2/Sv); test: Basal locomotor activity in WT littermates of TAAR1-KO mice; assay type: in vivo; details: 5 and 25 mg/kg alone, 60 min
Experimental: as §3, with “The Taarl^-/- (TAAR1-KO) mice were obtained from Lundbeck ([Wolinsky et al., 2007]). All wild type (WT) and TAAR1-KO mice used for experiments were generated from TAAR1-KO heterozygous mice in a C57BL/6J x 129S1/Sv mixed background. Experimentally” for “Experimentally”, “[…] The locomotor activity was then measured for additional 1 h. […] The locomotor activity was assessed for 60 min following” for “Following”, “injection. […]” for “habituation, the mice were removed from the al apparatus and injected with drugs (see below for administration) or vehicle and returned immediately to the locomotor chamber.”

T2 sequence (P20309 whole entry): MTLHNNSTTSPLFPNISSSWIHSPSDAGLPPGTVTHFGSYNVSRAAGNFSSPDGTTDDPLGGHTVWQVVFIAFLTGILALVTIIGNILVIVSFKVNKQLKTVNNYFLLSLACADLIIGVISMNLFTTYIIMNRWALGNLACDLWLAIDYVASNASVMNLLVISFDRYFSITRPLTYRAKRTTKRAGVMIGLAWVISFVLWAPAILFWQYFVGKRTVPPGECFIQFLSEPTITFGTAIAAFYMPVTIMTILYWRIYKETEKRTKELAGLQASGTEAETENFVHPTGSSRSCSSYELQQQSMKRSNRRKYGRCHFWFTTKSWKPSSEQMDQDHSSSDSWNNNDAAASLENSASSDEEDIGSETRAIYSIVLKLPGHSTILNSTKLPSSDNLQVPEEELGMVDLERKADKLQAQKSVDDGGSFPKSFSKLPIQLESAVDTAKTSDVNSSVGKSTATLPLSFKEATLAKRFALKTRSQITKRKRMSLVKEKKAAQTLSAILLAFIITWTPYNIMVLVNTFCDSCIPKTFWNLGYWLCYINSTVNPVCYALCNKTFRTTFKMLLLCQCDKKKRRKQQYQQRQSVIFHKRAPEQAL
T3 sequence (P18089 whole entry): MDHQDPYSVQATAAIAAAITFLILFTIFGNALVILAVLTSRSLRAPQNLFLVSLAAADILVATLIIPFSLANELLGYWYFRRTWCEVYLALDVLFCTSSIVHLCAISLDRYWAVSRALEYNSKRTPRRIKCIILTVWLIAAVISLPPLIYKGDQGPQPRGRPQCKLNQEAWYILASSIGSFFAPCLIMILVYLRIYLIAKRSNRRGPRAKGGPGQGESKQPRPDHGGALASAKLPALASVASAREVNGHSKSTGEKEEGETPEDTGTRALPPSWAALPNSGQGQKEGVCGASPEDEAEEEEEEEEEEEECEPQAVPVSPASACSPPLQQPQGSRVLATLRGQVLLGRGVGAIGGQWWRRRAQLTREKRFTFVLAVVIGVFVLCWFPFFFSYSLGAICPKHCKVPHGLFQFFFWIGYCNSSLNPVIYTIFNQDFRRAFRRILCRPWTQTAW
T1 sequence (P28223 whole entry): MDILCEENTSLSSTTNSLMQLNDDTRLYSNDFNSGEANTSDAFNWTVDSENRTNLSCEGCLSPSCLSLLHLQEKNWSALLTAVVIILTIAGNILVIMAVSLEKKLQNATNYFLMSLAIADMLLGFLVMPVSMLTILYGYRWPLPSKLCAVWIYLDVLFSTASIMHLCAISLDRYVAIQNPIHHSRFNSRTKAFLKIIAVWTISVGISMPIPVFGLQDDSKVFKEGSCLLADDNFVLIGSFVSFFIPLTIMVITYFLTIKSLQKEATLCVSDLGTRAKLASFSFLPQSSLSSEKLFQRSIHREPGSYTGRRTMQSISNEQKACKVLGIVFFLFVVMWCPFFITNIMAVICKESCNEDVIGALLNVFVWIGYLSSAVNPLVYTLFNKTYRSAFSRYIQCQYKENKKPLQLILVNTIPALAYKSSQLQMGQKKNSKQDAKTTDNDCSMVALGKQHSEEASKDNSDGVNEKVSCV
T5 sequence (P11229 whole entry): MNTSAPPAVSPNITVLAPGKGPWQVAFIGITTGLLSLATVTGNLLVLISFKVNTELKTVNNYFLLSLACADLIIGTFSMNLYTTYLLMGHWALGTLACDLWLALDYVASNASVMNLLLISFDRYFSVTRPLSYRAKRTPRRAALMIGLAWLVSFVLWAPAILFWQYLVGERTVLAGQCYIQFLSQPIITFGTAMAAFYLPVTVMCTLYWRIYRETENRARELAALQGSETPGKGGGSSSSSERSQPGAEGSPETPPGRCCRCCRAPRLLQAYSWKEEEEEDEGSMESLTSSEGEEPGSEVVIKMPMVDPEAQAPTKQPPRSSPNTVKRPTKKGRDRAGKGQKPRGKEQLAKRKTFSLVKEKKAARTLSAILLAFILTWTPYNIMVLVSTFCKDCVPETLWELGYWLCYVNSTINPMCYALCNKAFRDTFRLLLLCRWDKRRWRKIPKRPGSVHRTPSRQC
T4 sequence (P08172 whole entry): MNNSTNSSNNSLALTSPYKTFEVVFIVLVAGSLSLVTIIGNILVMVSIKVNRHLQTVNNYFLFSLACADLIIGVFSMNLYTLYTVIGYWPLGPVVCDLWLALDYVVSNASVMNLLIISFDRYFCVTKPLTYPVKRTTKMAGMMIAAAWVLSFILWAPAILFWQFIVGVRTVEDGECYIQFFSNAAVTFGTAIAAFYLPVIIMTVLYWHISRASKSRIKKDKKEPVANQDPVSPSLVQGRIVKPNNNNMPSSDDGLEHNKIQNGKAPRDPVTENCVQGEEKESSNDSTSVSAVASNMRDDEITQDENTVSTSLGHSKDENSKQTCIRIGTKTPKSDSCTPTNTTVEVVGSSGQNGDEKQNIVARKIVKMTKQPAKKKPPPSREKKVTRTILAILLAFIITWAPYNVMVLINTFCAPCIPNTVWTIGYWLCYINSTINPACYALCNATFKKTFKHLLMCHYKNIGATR

Compound: Clc1ccc(CNCc2ccc(Cn3cncn3)cc2)c(Cl)c1 [compound 22]
- inhibition at 10 µM (5-HT2A): 2.1%
- inhibition at 10 µM (M3): 15.5%
- inhibition at 10 µM (Alpha2B): 22.6%
- inhibition at 10 µM (M2): 7.1%
- inhibition at 10 µM (M1): 18.3%
- potentiation of amphetamine locomotor response [1]: 44%
- stereotypic counts (C57BL/6J mice): increase in stereotypic counts
- effect on basal locomotor activity [2]: did not significantly alter
